Laboratory results: PubChem BioAssay (NCI)
Values joined by “and” are separate entries in the source; they are usually repeats but may differ in a detail not shown here. Equal entries are not always repeated.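 Briefly, cells in 96-well plates were exposed to five compound concentrations for 48 h, and endpoints were estimated by linear interpolation. GI50 is the concentration that inhibits growth by half. TGI: concentration producing complete growth inhibition.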

Key:
Experiment in all cases: DTP human tumour cell line panel, 48 h
[1] = test system: NCI-H23 lung
[2] = test system: PC-3 prostate
[3] = test system: MDA-N
[4] = test system: COLO 205 colon
[5] = test system: NCI-H226 lung
[6] = test system: RXF 393 renal
[7] = test system: OVCAR-8 ovarian
[8] = test system: EKVX NSCLC
[9] = test system: K-562 leukemia
[10] = test system: OVCAR-4 ovarian
[11] = test system: HCT-15 colon
[12] = test system: TK-10 renal
[13] = test system: SF-539 CNS
[14] = test system: BT-549 breast
[15] = test system: CAKI-1 renal
[16] = test system: SN12C renal
[17] = test system: A498 renal
[18] = test system: SF-295 CNS
[19] = test system: ACHN renal
[20] = test system: OVCAR-5 ovarian
[21] = test system: MDA-MB-435
[22] = test system: UO-31 renal
[23] = test system: OVCAR-3 ovarian
[24] = test system: NCI-H460 lung
[25] = test system: MDA-MB-231 breast
[26] = test system: MOLT-4 leukemia
[27] = test system: SK-MEL-28 melanoma
[28] = test system: DU-145 prostate
[29] = test system: SNB-75 CNS
[30] = test system: HS 578T breast
[31] = test system: HOP-62 NSCLC
[32] = test system: SK-MEL-5 melanoma
[33] = test system: U251 CNS
[34] = test system: SR leukemia
[35] = test system: 786-0 renal
[36] = test system: HCC-2998 colon
[37] = test system: T-47D breast
[38] = test system: HCT-116 colon
[39] = test system: NCI/ADR-RES ovarian
[40] = test system: HL-60(TB) leukemia
[41] = test system: M14 melanoma
[42] = test system: UACC-62 melanoma
[43] = test system: A549 NSCLC
[44] = test system: MCF7 breast
[45] = test system: HT29 colon
[46] = test system: HOP-92 NSCLC
[47] = test system: SK-OV-3 ovarian
[48] = test system: SNB-19 CNS
[49] = test system: SF-268 CNS
[50] = test system: MALME-3M melanoma
[51] = test system: NCI-H522 lung
[52] = test system: RPMI-8226 leukemia
[53] = test system: IGROV1 ovarian
[54] = test system: KM12 colon
[55] = test system: LOX IMVI melanoma
[56] = test system: UACC-257 melanoma
[57] = test system: SW-620 colon
[58] = test system: SK-MEL-2 melanoma
[59] = test system: CCRF-CEM leukemia

COc1cc(/C=[N+](\[O-])c2ccccc2Cl)ccc1OC(=S)S
TGI [1]: > 100 µM | TGI [2]: > 100 µM | TGI [3]: > 100 µM | TGI [4]: 51 µM | TGI [5]: > 100 µM | TGI [6]: 89.3 µM | TGI [7]: > 100 µM | TGI [8]: > 100 µM | TGI [9]: > 100 µM | TGI [10]: 27.8 µM | TGI [11]: > 100 µM | TGI [12]: > 100 µM | TGI [13]: > 100 µM | TGI [14]: 68.3 µM | TGI [15]: > 100 µM | TGI [16]: > 100 µM | TGI [17]: > 100 µM | TGI [18]: > 100 µM | TGI [19]: > 100 µM | TGI [20]: > 100 µM | TGI [21]: 57.7 µM | TGI [22]: > 100 µM | TGI [23]: > 100 µM | TGI [24]: > 100 µM | TGI [25]: > 100 µM | TGI [26]: > 100 µM | TGI [27]: > 100 µM | TGI [28]: > 100 µM | TGI [29]: 63.6 µM | TGI [30]: > 100 µM | TGI [31]: > 100 µM | TGI [32]: 38.2 µM | TGI [33]: > 100 µM | TGI [34]: > 100 µM | TGI [35]: > 100 µM | TGI [36]: > 100 µM | TGI [37]: 53.4 µM | TGI [38]: > 100 µM | TGI [39]: 76.4 µM | TGI [40]: 47.6 µM | TGI [41]: > 100 µM | TGI [42]: 99.7 µM | TGI [43]: > 100 µM | TGI [44]: > 100 µM | TGI [45]: > 100 µM | TGI [46]: 49.2 µM | TGI [47]: > 100 µM | TGI [48]: > 100 µM | TGI [49]: > 100 µM | TGI [50]: > 100 µM | TGI [51]: > 100 µM | TGI [52]: > 100 µM | TGI [53]: > 100 µM | TGI [54]: 41.8 µM | TGI [55]: > 100 µM | TGI [56]: > 100 µM | TGI [57]: > 100 µM | TGI [58]: > 100 µM

CC(C)C(C=O)C(O)(C(F)(F)F)C(F)(F)F (stereo not drawn)
TGI [1]: > 100 µM | TGI [2]: > 100 µM | TGI [3]: > 100 µM | TGI [4]: > 100 µM | TGI [5]: > 100 µM | TGI [6]: > 100 µM | TGI [7]: > 100 µM | TGI [8]: > 100 µM | TGI [9]: > 100 µM | TGI [10]: > 100 µM | TGI [11]: > 100 µM | TGI [12]: > 100 µM | TGI [13]: > 100 µM | TGI [14]: > 100 µM | TGI [15]: > 100 µM | TGI [17]: > 100 µM | TGI [18]: > 100 µM | TGI [19]: > 100 µM | TGI [20]: > 100 µM | TGI [21]: > 100 µM | TGI [22]: > 100 µM | TGI [23]: > 100 µM | TGI [24]: > 100 µM | TGI [25]: > 100 µM | TGI [26]: > 100 µM | TGI [27]: > 100 µM | TGI [28]: > 100 µM | TGI [29]: > 100 µM | TGI [30]: > 100 µM | TGI [32]: > 100 µM | TGI [33]: > 100 µM | TGI [34]: > 100 µM | TGI [35]: > 100 µM | TGI [36]: > 100 µM | TGI [37]: > 100 µM | TGI [38]: > 100 µM | TGI [39]: > 100 µM | TGI [40]: > 100 µM | TGI [41]: > 100 µM | TGI [42]: > 100 µM | TGI [43]: > 100 µM | TGI [44]: > 100 µM | TGI [45]: > 100 µM | TGI [46]: > 100 µM | TGI [47]: > 100 µM | TGI [48]: > 100 µM | TGI [50]: > 100 µM | TGI [51]: > 100 µM | TGI [52]: > 100 µM | TGI [54]: > 100 µM | TGI [55]: > 100 µM | TGI [56]: > 100 µM | TGI [57]: > 100 µM | TGI [58]: > 100 µM

C/C=C1/CN2CCC34c5ccccc5N5C(=O)C(C6CC78c9ccccc9N9C(=O)C=CC(C%10CC7N6C/C%10=C/C)C98)=CC(C1CC23)C54 (stereo not drawn)
GI50 [1]: 3.94 µM | TGI [1]: 13.1 µM and 15.5 µM | GI50 [2]: 2.45 µM | TGI [2]: 9.38 µM | GI50 [3]: 3.51 µM | TGI [3]: 12.7 µM and 13.3 µM | GI50 [4]: 8.74 µM | TGI [4]: 12.4 µM and 26.6 µM | GI50 [5]: 24 µM | TGI [5]: 15 µM and 46 µM | TGI [6]: 8.57 µM | GI50 [7]: 2.78 µM | TGI [7]: 8.57 µM and 10.8 µM | GI50 [8]: 12.5 µM | TGI [8]: 14.5 µM and 26.4 µM | TGI [9]: 50 µM | TGI [10]: 32.9 µM and 22.4 µM | GI50 [11]: 2.83 µM | TGI [11]: 14.6 µM and 10.3 µM | GI50 [12]: 22 µM | TGI [12]: 14.4 µM and 40.7 µM | GI50 [13]: 12 µM | TGI [13]: 3.32 µM and 26.4 µM | TGI [14]: 16.4 µM and 21.9 µM | TGI [15]: 21.2 µM and 26.8 µM | GI50 [16]: 11.9 µM | TGI [16]: 14.5 µM and 26.8 µM | GI50 [17]: 10.7 µM | TGI [17]: 16.6 µM and 23.7 µM | GI50 [18]: 15.9 µM | TGI [18]: 19.6 µM and 32.7 µM | GI50 [19]: 11.7 µM | TGI [19]: 13.6 µM and 24.3 µM | GI50 [20]: 19.3 µM | TGI [20]: 19.9 µM and 34.6 µM | GI50 [21]: 7.47 µM | TGI [21]: 21.4 µM and 21.7 µM | GI50 [22]: 5.87 µM | TGI [22]: 9.81 µM and 20.2 µM | GI50 [23]: 10.7 µM | TGI [23]: 16.5 µM and 23.5 µM | GI50 [24]: 9.87 µM | TGI [24]: 15.9 µM and 40 µM | GI50 [25]: 13.4 µM | TGI [25]: 8.36 µM and 29 µM | TGI [26]: 5.56 µM | GI50 [27]: 10.1 µM | TGI [27]: 11.3 µM and 22.7 µM | TGI [28]: 23.4 µM | TGI [29]: 14.7 µM | GI50 [30]: 16.6 µM | TGI [30]: 20.9 µM and 73.2 µM | TGI [31]: 20.5 µM and 23.3 µM | GI50 [32]: 11.9 µM | TGI [32]: 12 µM and 25.1 µM | GI50 [33]: 4.66 µM | TGI [33]: 12.1 µM and 17.3 µM | TGI [34]: 50 µM | GI50 [35]: 5.51 µM | TGI [35]: 11.3 µM and 20.1 µM | GI50 [36]: 13.4 µM | TGI [36]: 12.2 µM and 29.9 µM | TGI [37]: 33.6 µM | GI50 [38]: 2.3 µM | TGI [38]: 12.1 µM and 5.45 µM | GI50 [39]: 2.57 µM | TGI [39]: 50 µM and 10.4 µM | GI50 [40]: 2.7 µM | TGI [40]: 1.36 µM and 10.2 µM | GI50 [41]: 3.81 µM | TGI [41]: 11.9 µM and 13.8 µM | GI50 [42]: 10.9 µM | TGI [42]: 14.4 µM and 23.6 µM | GI50 [43]: 14.1 µM | TGI [43]: 18.9 µM and 32.3 µM | GI50 [44]: 2.9 µM | TGI [44]: 8.15 µM and 12 µM | TGI [45]: 9.87 µM and 5.4 µM | GI50 [46]: 0.466 µM | TGI [46]: 13.6 µM and 6.71 µM | GI50 [47]: 15.3 µM | TGI [47]: 19.1 µM and 29.7 µM | GI50 [48]: 14.8 µM | TGI [48]: 15.2 µM and 30 µM | GI50 [49]: 4.3 µM | TGI [49]: 17.7 µM and 17.2 µM | TGI [50]: 14.5 µM | GI50 [51]: 8.97 µM | TGI [51]: 11 µM and 27.2 µM | TGI [53]: 18.3 µM | GI50 [59]: 1.6 µM | TGI [59]: 2.05 µM and 4.39 µM | GI50 [54]: 2.94 µM | TGI [54]: 36.8 µM and 12.2 µM | TGI [55]: 26 µM | GI50 [56]: 2.93 µM | TGI [56]: 12.2 µM and 9.24 µM | GI50 [57]: 3.32 µM | TGI [57]: 5.45 µM and 11.8 µM | GI50 [58]: 12.3 µM | TGI [58]: 13.5 µM and 25.5 µM
